Entries after “also recorded” stand apart in the source; their conditions may differ. Like-named read-outs stand apart in the source and are kept apart here.

Data on 2 substances can be found in US7196063B1, “Peptides and pharmaceutical compositions comprising same” (NST NeuroSurvival Technologies Ltd., priority 1999, dated 2007).

For data set [1] the following is noted: within 5 minutes; rabbits; intravenous injection; cited from earlier work.
Another data set concerns apoptotic hepatocytes. Type of data set: in vivo, mice. To be noted: data not shown. The procedure:
Massive hepatic apoptosis can be induced within 1–2 hr in mice following intravenous injection of anti-Fas antibody (Ogasawara J. et al., 1993, Nature, 364, 806–809). […] Five-weeks-old male BALB/c mice were injected intravenously with 10 μg/animal of purified hamster anti-Fas mAb (Jo2, PharMingen, San Diego, Calif.) using the model described by Ogasawara et. al. (Nature, 1993, 364, 806–809). […] Injections were performed at different time intervals between 5 min–2 hr after antibody treatment. […] All animals were killed 2 hr after administration of antibody followed by organ removal. Heart, lung and liver were collected. Liver were sectioned transversely across the mid-portion of each lobe; organs were fixed in phosphate-buffered formalin for histological and immunohisto-chemical analyses.
Formalin fixed paraffin-embedded tissues were sectioned (5 μm) for staining with Hematoxylin/Eosin or other techniques. Endogenous peroxidase activity was blocked by incubation with 3% H2O2.
After washing with PBS, staining was developed with 3,3-diaminobenzidine tetrahydrochloride (DAB), and counterstained with Hematoxylin.
Liver sections from different lobes were used for detection of stained apoptotic cells compared to normal cells. Using light microscopy (×400), twenty fields of stained cells were evaluated. A ratio between the number of stained apoptotic hepatocytes versus stained normal hepatocytes in the field was defined. The stained cell's score (%) corresponds to the mean of the values for the twenty evaluated fields.
The percentage of apoptotic cells in the fields was estimated by evaluating parallel sections stained with Hematoxylin/Eosin. Analysis was performed blindly, since the pathologist performing the histological evaluation was unaware of the assignment of mice to the treatment or control group.
To quantitate the microscopic examination of the pharmacokinetics studies, the number of stained cells from 20 microscopic fields was counted.

The next data set relates to arterial thrombosis. The following applies: intravenous administration; carotid artery injury model; cited from earlier work.
Data set [2] has as its system HUVEC cells. The experiment in a line: Thrombin generation by HUVEC cells. In kind it is cell-based, Human. An excerpt:
In vivo, vascular endothelial cells are known to catalyze the formation of thrombin, due to expression of PS on their plasma membrane, at which pro-coagulant complexes are assembled (Van Hardee W L et al., 1994, Biochem J. 302, 305–312). Endothelial cells (EC) play an active role in determining the pro-coagulant/anti-coagulant balance in the vascular system (Gimborne M A et al., 1995, Ann. N. Y. Acad Sci 748, 122–132). Perturbed endothelial cells dramatically increase their pro-coagulant state. […] (FIG. 4D). When HUVEC cells (1.5×10^5) were incubated with the S-2366 substrate, thrombin generation was evident after a lag time of 12.5 minutes, which reflects the time required to assemble a functional complex on the HUVEC surface.
The effect of NST516 compound on HUVEC mediated-thrombin generation was studied.

The test system of data set [3] is HUVEC cells. The experiment in a line: Binding to endothelial HUVEC cells by FACS analysis. Type of data set: cell-based, Human. The following applies: 250 μM. The protocol: Binding detection was done using flow cytometric analysis to populations of HUVEC cells.
HUVEC (CC-2517, obtained from Clonetics, Walkersville, Md.) were grown on tissue culture flasks in Endothelial cell medium (EGM-2 Bulletkit, CC 3162, Clonetics). Mid-confluent cultures were harvested using Trypsine/EDTA solution (CC-5012, Clonetics). The cells were rinsed twice with TBS containing 2% BSA and kept on ice. Samples of 10^6 cells were tested for binding.
Cells were washed in 1 ml of TBS-BSA and centrifuged as before and then suspended in 100 μl of TBS-BSA containing streptavidin conjugated to fluorescein (FITC) for detection of the bound biotinylated compound. […] Thereafter, 400 μl of TBS-BSA were added and cells were entrifuged and re-suspended in 400 μl of TBS and taken for FACS analysis.
In general terms: Flow cytometry measures light scatter and fluorescence of single cells or particles in a stream.

Data set [4] relates to HUVEC cells. The experiment in a line: Cell-ELISA: binding of anti β2GPI antibodies to HUVEC cells. In kind it is cell-based, Human. The procedure:
Human β2GPI is a plasma phospholipid binding protein that is required for the binding of autoantibodies in sera from patients with APS to cardiolipin (McNeil H P et al., 1990 Proc. Natl. Acad. Sci. 87, 4120–4124). […] Anti β2GPI antibodies are present in sera of APS patients. […] For cell-ELISA tests, HUVEC cells (at 40,000/well), were plated on 96 well tissue culture plates (Nunc) in 200 μl of the culture medium, and allowed to grow for 18–22 hours. Following 2 washes with Hepes buffer (10 mM Hepes pH 8, 140 mM NaCl) and 5 min incubation with the culture medium, the wells were incubated for 3 hr with 10% of normal plasma in PBS (as a source of β2 GPI protein), supplemented with 1/500 of goat anti-human Apolipoprotein-H (β2 GPI) (Affinity biologicals, PA). Parallel control wells were incubated with 10% of normal plasma from Ilex. Serial dilutions of NST500 compounds were prepared in plasma/PBS. Washes and development were as described for anti CL ELISA.
As presented in FIG. 5B, in the presence of plasma and absence of NST500, HUVEC cells supported binding of anti β2GPI to their surface. However, displacement of anti β2GPI by NST500 compounds in this system occurred in a concentration dependent manner, similar to the results obtained with CL.
On the technique in general: An ELISA detects its analyte on a solid surface through an enzyme-linked reagent.

Data set [5] relates to apoptotic HeLa cells. To be noted: 250 μM; FACS. The protocol:
Detection of binding to apoptotic HeLa cells was performed according to the following procedure: Cells were plated on tissue culture plates at a density of 5×10^6 cells/10 cm dish, and grown in their normal medium at 37° C. for 18 hr. The medium was replaced with a medium containing 2% FCS and 500 μM of dopamine. Eighteen hours later, floating cells that were identified as advanced apoptotic cells were collected and transferred to a 50 ml tube. To evaluate the level of apoptosis in the cultures, aliquots of 10^5 cells from the cultures were plated on 48 wells plate and stained with Hoechst 33342 dye (Molecular Probes) at a concentration of 1 mg/ml for 20 min (as described above). Non-treated cells served as control. For collecting the non-treated cells, the medium of the culture was aspirated and discarded, the cells were rinsed with growing medium and 2 ml of medium were added to the culture dish. The cells were detached from the culture dish using a cell scraper and separated to single cells by passage through a syringe with a 18G needle.
The reactions were incubated at room temperature for 40 minutes and then 400 μl of TBS was added and cells were collected by centrifugation at 3000×g for 3 minutes. Cells were washed in 1 ml of TBS and centrifuged as before and detecting of the bound compound was performed using 100 μl of TBS containing streptavidin conjugated to fluorescein (FITC) (016-090-084 from Jackson ImmunoResearch lab. Inc.). Incubation was for 15 minutes at room temperature in the dark. Thereafter, 400 μl of TBS was added and cells were centrifuged and washed again with 1 ml of TBS as before, re-suspended in 400 μl of TBS and then taken for FACS analysis. The FACS analysis was performed on Beckton-Dickinson cell sorter, using lysis II software. Excitation was at 488 nm and emission for FITC detection was at 535 nm and for PI detection at 585 nm.

The next data set deals with cardiolipin. An excerpt: The antiphospholipid antibody syndrom (APS) is a thrombophilic condition, characterized by a panel of antibodies that recognize anionic phospholipid-protein cofactor complexes. The antiphospholipid antibodies lupus anticoagulant and anticardiolipin, (present in high concentrations in SLE patients), are associated with several medical disorders including artherial and venous thrombosis, and recurrent pregnancy loss (Rand J H et al., 1998, Blood. 92, 1652–1660). […] Noncellular negatively charged phospholipid coated surface (cardiolipin) were chosen as a target for binding.
CL, (Diphosphatidylglycerol, c-1649, Sigma), prepared at 50 μg/ml in ethanol, was added to a 96 well plate (100 μl/well) using Immunolon 4 plates (Dynatech, Chantilly, Va.) and incubated for 16–20 hr for evaporation of ethanol. As control, wells were coated with ethanol only. The coated plates were washed 3 times with 100 μl of blocking buffer (PBS containing 0.3% gelatin (Sigma) and 1 mM EDTA) to block non specific binding. A 5 min incubation time was used between each wash. Normal plasma (Ilex, Italy, 84670-11) and plasma derived from SLE patients (either from Gradipore, Australia, LAHP-1, or from Biopool, Ventura, Calif.) were prepared according to the producer's instruction. The plasma was diluted 1/10 in the blocking buffer and was added to the CL and ethanol coated wells. […] Following 3 hr incubation, the plates were washed twice with PBS/BSA buffer (0.4% bovine serum albumine (BSA) in PBS). For detection of anti cardiolipin binding property of the tested plasma, the plates were incubated with a 1/10000 dilution of Peroxidase-conjugated affinity purified Goat anti-human IgG (Jackson Immunoresearch lab.) in PBS/BSA buffer for 1 hour. The plates were then washed 3 times with PBS/BSA buffer, and color reaction was developed by incubation with 100 ul of 0-phenylenedi-amine (OPD) dihydrochloride (Sigma p-7288) at a concentration of 0.4 mg/ml in 0.05 M phosphate citrate buffer, pH 5.0 supplemented with 4 ul of 30% hydrogen peroxide (Aldrich) for 10 ml mixture. To detect the level of NST500 compounds that were bound to CL, parallel wells were incubated with streptavidin conugated to OPD (SA-OPD, Jackson Immunoresearch lab.), that specifically recognize the biotinylated NST 500 compounds. The resulting colour changes were recorded at 405 nm using a Bio Tek Elx800 Eliza reader.

In data set [6] the test system is apoptotic HeLa cells. Put plainly: Modified APTT test with apoptotic HeLa cells as pro-coagulant surface. In kind it is cell-based. The procedure: Apoptotic and control HeLa cells were prepared as described for the FACS analysis. Equal numbers of apoptotic or control non-treated cells (5×10^4) in a volume of […], were mixed with 100 μl of normal plasma, incubated for 1 min at 37° C. in a bath and then calcified by addition of 100 μl of 25 mM CaCl2, and clotting time was measured. Inhibition of the pro-coagulant activity of the apoptotic cells by NST500 compounds was tested following pre-incubation of apoptotic cells for 20 min. at room temperature with increased concentrations of the different NST 500 compounds.
The results can be seen in FIG. 4B.

Turning to “Annexin V: 320 amino acid protein of the annexin family with Ca2+-dependent binding to anionic phospholipid membranes”, in data set [1], the clearance is 90%. In addition, the “staining of apoptotic cells, exogenously added” value in the data set with apoptotic hepatocytes was “same pattern of staining”. In addition, in the data set with arterial thrombosis, the “inhibition of arterial thrombosis” value is “effectively achieved”.
With “Myristate-KKVSFFCKNKEKKC-K(SEQ ID NO:2) (biotin) [NST516]”, in the data set on HUVEC cells [2], the “delay in thrombin generation” value came to 5 min; the “potency in inhibiting thrombin generation compared to NST513” value is “more potent compound in inhibiting thrombin generation”; the “thrombin generation by HUVEC cells, dose response” value was “dose dependence inhibition of thrombin generation”. Besides, in the data set on HUVEC cells [3], the “fraction of HUVEC cells labeled” value came to 83%, the “higher FITC labeled HUVEC cells as compared to NST513” value worked out at 70% and the “increase in labeled HUVEC cells as compared to background of control cells without compound” value is 8 fold. Further, in the data set on HUVEC cells [4], the “blocking of binding of anti β2 GPI antibodies to HUVEC cells” value is “dramatic and significant ability to block binding”; the “inhibiting activity relative to NST513” value is recorded as “two times better”. For the same substance, the “binding to apoptotic HeLa cells relative to NST513” value in the data set on apoptotic HeLa cells [5] is given as 3.5 fold. Besides, in the data set with cardiolipin, the “potency relative to NST513 in inhibiting binding of SLE plasma to CL” value is reported as 10 times. Besides, in the data set on cardiolipin (1 μM), the “displacement of plasma derived from SLE patients from cardiolipin” value is “marked displacement” and the “lowering of binding of plasma derived from SLE patients to CL (factor)” value turned out to be 2. In the data set with cardiolipin (10 μM), the “displacement of plasma derived from SLE patients from cardiolipin” value is on record as “almost complete displacement”. In addition, the “inhibition of binding of plasma derived from SLE patients to cardiolipin, dose response” value with cardiolipin (1–10 μM) was “marked displacement of IgG”. Also, in the data set on apoptotic HeLa cells [6] (2.5–2.2 μM), the “effect on clotting time of apoptotic cells” value was “marked and dose dependent inhibition of clotting time; also recorded: dose-dependent effect”; the “increase of clotting time of apoptotic cells (factor)” value stood at 4.5 times. Further, the “clotting time of apoptotic cells” value in the data set on apoptotic HeLa cells [6] (apoptotic cells alone 50 seconds, control cells 80 seconds) was determined as 225 s.
